In patent publication US20250281497A1, “FUSED AMINO PYRIMIDINE COMPOUNDS FOR TREATMENT OF SEIZURE DISORDERS” (Ovid Therapeutics Inc., priority 2024, published 2025):

Key:
[1] = tested on: KA induced SE; assay: Kainic acid (KA) induced SE, EEG recording, pretreatment; type: in vivo, mice; settings: mice pretreated with vehicle; DZ 10 mg/kg IP 2h after KA; pre 4.2±2.4×10^−6
Excerpt: This model was chosen due to the similarities with patients undergoing SE, as KA-induced seizures become refractory to benzodiazepines (BDZs) within minutes (Betjemann and Lowenstein, Lancet Neurol 14, 615-624 (2015); Crawshaw and Cock, (2020a) [Seizure: Eur. J. Epilep. 75 (2020) 145-152] Seizure 80, 282; Lee et at, 2022, supra; Reddy and Kuruba, Int J Mol Sci 14, 18284-18318 (2013)).
(§1) EEG recordings and analysis. WT C57Bl/6J adult male mice (12 weeks) were anesthetized with isofluorane and implanted with EEG/EMG electrodes and allowed to recover for 7 days prior to experimentation. […] 2h following KA administration mice were injected with a saturating concentration of diazepam (DZ) 10 mg/kg (IP) and recordings were extended for a further 60 min. […] LabChart 8 software was used for data analysis. Epileptiform activity was identified by changes in the amplitude of electrographic activity characterized by consistent changes in the power of the Fast Fourier transform (FFT) of the EEG and abnormal activity characterized by periods of rhythmic spiking lasting longer than 30s (Moore et al., 2017, supra; Silayeva et al., 2015, supra; Sivakumaran et al., J. Neurosci. 35, 8291-8296 (2015)).
To provide quantitative insights on the effects of KA, raw EEG recordings were subject to Fast-Fourier transformation (8K FFT size, Hann (cosine-bell), 87.50% window overlap) for frequencies between 0-100 Hz 2h after KA injection (Lee et at, 2022, supra).
30 or 60 min later mice were injected with KA (20 mg/kg) and 2h later with DZ as detailed above.

[2] = tested on: KA induced SE; assay: KA induced ongoing SE, EEG recording, treatment 2h after KA; type: in vivo, mice
Protocol: as §1
To evaluate the potential of KCC2 activators to terminate ongoing SE, the KA model described above was employed. Mice were injected with KA (20 mg/Kg; IP). […] Spectral data were then subjected to FFT and the total EEG power between 1-100 Hz of the 2h following KA treatment (pre-drug) and 30 min following their injection (post-drug) were compared (FIG. 6B). In mice treated with DZ alone variable effects were observed, from large increases to modest reductions in EEG power, but these effects were not significant (FIG. 6C; pre=1.1±0.2×10^−6, post=4.4±7.4×10^−7 μV^2, p=0.214, n=13-14 mice). […] The latency of the treatments to modify EEG power was examined by measuring the time taken for this parameter to be reduced to 50% (FIG. 6E). […] Finally in mice treated with DZ alone 62% were insensitive to the effects of this agent on EEG power.

## CN1C(=O)CN=C(c2ccccc2)c2cc(Cl)ccc21 [DZ, diazepam]
[1]
  total EEG power post DZ: 2.9±2.7×10^−6 μV^2
[2]; 30 min after injection, given 2h after KA, DZ 10 mg/kg, Compound A 50 mg/Kg IP
  total EEG power post-drug: 4.4±7.4×10^−7 μV^2
[2]; treatment 2h after KA
  mice insensitive to DZ effects on EEG power: 62%
